From patent US10738028B2, “Spiro three-membered ring, spiro five-membered ring peptide deformylase inhibitor and use thereof in antibacteria and anti-tumor” (priority 2016, dated 2020)
Where two headings read alike, the source gives them in different places.

What was measured:
Type in all cases: cell-based
[1] = system: Enterococcus faecalis (EFA); assay: MIC, two-fold agar dilution (CLSI), clinical isolates
Outline: (§1)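 Susceptibility was tested using CLSI two-fold agar dilution against the strains examined.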

[2] = system: Enterococcus faecium (EFM); assay: as above
Outline: as §1

[3] = system: Escherichia coli (including ESBLs, non-ESBLs); assay: as above
Outline: as §1

[4] = system: Moraxella catarrhalis (BCA); assay: as above
Outline: as §1

[5] = system: Streptococcus pneoumoniae (SPN); assay: as above
Outline: as §1

[6] = system: methicillin-resistant Staphylococcus aureus (MRSA); assay: as above
Outline: as §1

[7] = system: methicillin-resistant Staphylococcus epidermidis (MRSE); assay: as above
Outline: as §1

[8] = system: methicillin-sensitive Staphylococcus aureus (MSSA); assay: as above
Outline: as §1

[9] = system: methicillin-sensitive Staphylococcus epidermidis (MSSE); assay: as above
Outline: as §1

[10] = system: HCT-116 colorectal cancer cell line; assay: CCK-8 proliferation inhibition; settings: Homo sapiens, HCT-116, 72 h, concentration of 30 μM, 72 hours, CCK-8
Outline: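 2000 cells/well, McCoy's 5A + 10% newborn bovine serum; overnight attach, 37° C./5% CO2. Cpd from DMSO stock diluted in medium, 72 h. Readout: CCK-8 (1:10). Ctrl 1‰ DMSO.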

[11] = system: A549 lung cancer cell line; assay: CCK-8 proliferation inhibition; settings: Homo sapiens, A549, 72 h, concentration of 30 μM
Outline: (§2)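 Plating at 2000 cells/well, then incubation overnight at 37° C. Next, a range of compound concentrations for 72 hours (control 1‰ DMSO). Finally, medium decanted and CCK-8 diluted 1:10 added.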

[12] = system: BEL-7402 liver cancer cell line; assay: CCK-8 proliferation inhibition; settings: Homo sapiens, Bel-7402, 72 h, concentration of 30 μM
Outline: as §2

[13] = system: MGC-803 gastric cancer cell line; assay: CCK-8 proliferation inhibition; settings: Homo sapiens, MGC-803, 72 h, concentration of 30 μM
Outline: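 CCK-8 read-out after 72 h drug exposure; 2000 cells/well, overnight pre-culture (37° C, 5% CO2); vehicle 1‰ DMSO. Media: PC3 F12; MGC-803/Jurkat 1640; MCF-7 DMEM high glucose; all +10% newborn bovine serum, 1% antibiotics.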

Question: O=C(C[C@@H](CC1CCCC1)C(=O)N1CC2(CC2)C[C@H]1C(=O)Nc1ccc(N2CCOCC2)cc1)NO [Example 61] was tested. Which Anti-bacterial activity (MIC), strain EFA 15-1 ([1]; clinical isolate EFA 15-1) did it give?
Answer: The Anti-bacterial activity (MIC), strain EFA 15-1 was over 32 µg/mL.

Question: What about the Anti-bacterial activity (MIC), strain EFA 15-2 ([1]; clinical isolate EFA 15-2) of the same compound?
Answer: The Anti-bacterial activity (MIC), strain EFA 15-2 was over 32 µg/mL.

Question: What about the Anti-bacterial activity (MIC), strain EFA 15-3 ([1]; clinical isolate EFA 15-3) of the same compound?
Answer: The Anti-bacterial activity (MIC), strain EFA 15-3 was over 32 µg/mL.

Question: What about the Anti-bacterial activity (MIC), strain EFA 15-4 ([1]; clinical isolate EFA 15-4) of the same compound?
Answer: The Anti-bacterial activity (MIC), strain EFA 15-4 was over 32 µg/mL.

Question: And the Anti-bacterial activity (MIC), strain EFA 15-5 ([1]; clinical isolate EFA 15-5)?
Answer: Its Anti-bacterial activity (MIC), strain EFA 15-5 is over 32 µg/mL.

Question: What about the Anti-bacterial activity (MIC), strain EFA 15-6 ([1]; clinical isolate EFA 15-6) of the same compound?
Answer: Its Anti-bacterial activity (MIC), strain EFA 15-6 is over 32 µg/mL.

Question: And the Anti-bacterial activity (MIC), strain EFA 15-9 ([1]; clinical isolate EFA 15-9)?
Answer: The Anti-bacterial activity (MIC), strain EFA 15-9 was 8 µg/mL.

Question: What about the Anti-bacterial activity (MIC), strain EFM 15-1 ([2]; clinical isolate EFM 15-1) of the same compound?
Answer: Its Anti-bacterial activity (MIC), strain EFM 15-1 is over 32 µg/mL.

Question: What about the Anti-bacterial activity (MIC), strain EFM 15-2 ([2]; clinical isolate EFM 15-2) of the same compound?
Answer: Its Anti-bacterial activity (MIC), strain EFM 15-2 is over 32 µg/mL.

Question: What about the Anti-bacterial activity (MIC), strain EFM 15-3 ([2]; clinical isolate EFM 15-3) of the same compound?
Answer: Its Anti-bacterial activity (MIC), strain EFM 15-3 is over 32 µg/mL.

Question: And the Anti-bacterial activity (MIC), strain EFM 15-4 ([2]; clinical isolate EFM 15-4)?
Answer: Its Anti-bacterial activity (MIC), strain EFM 15-4 is over 32 µg/mL.

Question: And the Anti-bacterial activity (MIC), strain EFM 15-6 ([2]; clinical isolate EFM 15-6)?
Answer: The Anti-bacterial activity (MIC), strain EFM 15-6 was 1 µg/mL.

Question: What about the Anti-bacterial activity (MIC), strain ECO+ 15-1 ([3]; clinical isolate ECO+ 15-1) of the same compound?
Answer: The Anti-bacterial activity (MIC), strain ECO+ 15-1 was over 32 µg/mL.

Question: What about the Anti-bacterial activity (MIC), strain ECO+ 15-2 ([3]; clinical isolate ECO+ 15-2) of the same compound?
Answer: The Anti-bacterial activity (MIC), strain ECO+ 15-2 was over 32 µg/mL.

Question: What about the Anti-bacterial activity (MIC), strain ECO+ 15-3 ([3]; clinical isolate ECO+ 15-3) of the same compound?
Answer: The Anti-bacterial activity (MIC), strain ECO+ 15-3 was 1 µg/mL.

Question: What about the Anti-bacterial activity (MIC), strain ECO+ 15-4 ([3]; clinical isolate ECO+ 15-4) of the same compound?
Answer: Its Anti-bacterial activity (MIC), strain ECO+ 15-4 is 1 µg/mL.

Question: And the Anti-bacterial activity (MIC), strain ECO− 15-1 ([3]; clinical isolate ECO− 15-1)?
Answer: The Anti-bacterial activity (MIC), strain ECO− 15-1 was over 32 µg/mL.

Question: And the Anti-bacterial activity (MIC), strain ECO− 15-2 ([3]; clinical isolate ECO− 15-2)?
Answer: The Anti-bacterial activity (MIC), strain ECO− 15-2 was over 32 µg/mL.

Question: And the Anti-bacterial activity (MIC), strain ECO− 15-3 ([3]; clinical isolate ECO− 15-3)?
Answer: The Anti-bacterial activity (MIC), strain ECO− 15-3 was over 32 µg/mL.

Question: And the Anti-bacterial activity (MIC), strain ECO− 15-4 ([3]; clinical isolate ECO− 15-4)?
Answer: Its Anti-bacterial activity (MIC), strain ECO− 15-4 is over 32 µg/mL.

Question: And the Anti-bacterial activity (MIC), strain BCA 14-1 ([4]; clinical isolate BCA 14-1)?
Answer: The Anti-bacterial activity (MIC), strain BCA 14-1 was 8 µg/mL.

Question: What about the Anti-bacterial activity (MIC), strain BCA 14-4 ([4]; clinical isolate BCA 14-4) of the same compound?
Answer: The Anti-bacterial activity (MIC), strain BCA 14-4 was 8 µg/mL.

Question: And the Anti-bacterial activity (MIC), strain BCA 14-5 ([4]; clinical isolate BCA 14-5)?
Answer: Its Anti-bacterial activity (MIC), strain BCA 14-5 is 1 µg/mL.

Question: What about the Anti-bacterial activity (MIC), strain BCA 14-6 ([4]; clinical isolate BCA 14-6) of the same compound?
Answer: The Anti-bacterial activity (MIC), strain BCA 14-6 was 1 µg/mL.

Question: And the Anti-bacterial activity (MIC), strain BCA 14-7 ([4]; clinical isolate BCA 14-7)?
Answer: The Anti-bacterial activity (MIC), strain BCA 14-7 was 8 µg/mL.

Question: And the Anti-bacterial activity (MIC), strain BCA 14-8 ([4]; clinical isolate BCA 14-8)?
Answer: Its Anti-bacterial activity (MIC), strain BCA 14-8 is 8 µg/mL.

Question: And the Anti-bacterial activity (MIC), strain BCA 14-10 ([4]; clinical isolate BCA 14-10)?
Answer: Its Anti-bacterial activity (MIC), strain BCA 14-10 is 8 µg/mL.

Question: And the Anti-bacterial activity (MIC), strain SPN 16-2 ([5]; clinical isolate SPN 16-2)?
Answer: The Anti-bacterial activity (MIC), strain SPN 16-2 was 2 µg/mL.

Question: And the Anti-bacterial activity (MIC), strain SPN 16-4 ([5]; clinical isolate SPN 16-4)?
Answer: Its Anti-bacterial activity (MIC), strain SPN 16-4 is 2 µg/mL.

Question: What about the Anti-bacterial activity (MIC), strain MRSA 15-1 ([6]; clinical isolate MRSA 15-1) of the same compound?
Answer: The Anti-bacterial activity (MIC), strain MRSA 15-1 was 1 µg/mL.

Question: What about the Anti-bacterial activity (MIC), strain MRSA 15-2 ([6]; clinical isolate MRSA 15-2) of the same compound?
Answer: Its Anti-bacterial activity (MIC), strain MRSA 15-2 is 1 µg/mL.

Question: What about the Anti-bacterial activity (MIC), strain MRSA 15-3 ([6]; clinical isolate MRSA 15-3) of the same compound?
Answer: The Anti-bacterial activity (MIC), strain MRSA 15-3 was 1 µg/mL.

Question: What about the Anti-bacterial activity (MIC), strain MRSA 15-4 ([6]; clinical isolate MRSA 15-4) of the same compound?
Answer: Its Anti-bacterial activity (MIC), strain MRSA 15-4 is 1 µg/mL.

Question: And the Anti-bacterial activity (MIC), strain MRSE 15-1 ([7]; clinical isolate MRSE 15-1)?
Answer: The Anti-bacterial activity (MIC), strain MRSE 15-1 was 1 µg/mL.

Question: And the Anti-bacterial activity (MIC), strain MRSE 15-2 ([7]; clinical isolate MRSE 15-2)?
Answer: The Anti-bacterial activity (MIC), strain MRSE 15-2 was 1 µg/mL.

Question: What about the Anti-bacterial activity (MIC), strain MRSE 15-3 ([7]; clinical isolate MRSE 15-3) of the same compound?
Answer: The Anti-bacterial activity (MIC), strain MRSE 15-3 was 1 µg/mL.

Question: What about the Anti-bacterial activity (MIC), strain MRSE 15-7 ([7]; clinical isolate MRSE 15-7) of the same compound?
Answer: The Anti-bacterial activity (MIC), strain MRSE 15-7 was 1 µg/mL.

Question: What about the Anti-bacterial activity (MIC), strain MSSA 15-3 ([8]; clinical isolate MSSA 15-3) of the same compound?
Answer: Its Anti-bacterial activity (MIC), strain MSSA 15-3 is 1 µg/mL.

Question: And the Anti-bacterial activity (MIC), strain MSSA 15-4 ([8]; clinical isolate MSSA 15-4)?
Answer: Its Anti-bacterial activity (MIC), strain MSSA 15-4 is 1 µg/mL.

Question: What about the Anti-bacterial activity (MIC), strain MSSA 15-5 ([8]; clinical isolate MSSA 15-5) of the same compound?
Answer: Its Anti-bacterial activity (MIC), strain MSSA 15-5 is over 32 µg/mL.

Question: What about the Anti-bacterial activity (MIC), strain MSSA 15-6 ([8]; clinical isolate MSSA 15-6) of the same compound?
Answer: Its Anti-bacterial activity (MIC), strain MSSA 15-6 is 1 µg/mL.

Question: And the Anti-bacterial activity (MIC), strain MSSE 15-3 ([9]; clinical isolate MSSE 15-3)?
Answer: Its Anti-bacterial activity (MIC), strain MSSE 15-3 is 1 µg/mL.

Question: And the Anti-bacterial activity (MIC), strain MSSE 15-4 ([9]; clinical isolate MSSE 15-4)?
Answer: Its Anti-bacterial activity (MIC), strain MSSE 15-4 is 1 µg/mL.

Question: And the Anti-bacterial activity (MIC), strain MSSE 15-5 ([9]; clinical isolate MSSE 15-5)?
Answer: Its Anti-bacterial activity (MIC), strain MSSE 15-5 is 1 µg/mL.

Question: What about the Anti-bacterial activity (MIC), strain MSSE 15-6 ([9]; clinical isolate MSSE 15-6) of the same compound?
Answer: The Anti-bacterial activity (MIC), strain MSSE 15-6 was 32 µg/mL.

Question: And the inhibition at 30 µM ([10]; Table 5, read-out: Inhibition of proliferation, Colorectal cancer HCT116)?
Answer: Its inhibition at 30 µM is at least 30%.

Question: And the inhibition at 30 µM ([10]; read-out: HCT116 inhibition rate/%)?
Answer: The inhibition at 30 µM was 35%.

Question: And the inhibition at 30 µM [11]?
Answer: Its inhibition at 30 µM is 10%.

Question: What about the inhibition at 30 µM [12] of the same compound?
Answer: Its inhibition at 30 µM is 50%.

Question: And the inhibition at 30 µM [13]?
Answer: The inhibition at 30 µM was 31%.
